SMILES strings stand for the structures. Positions count from the first letter of the chain named. Bounds are passed on as bounds.

For one data set, the target named is T1, FLT3 (R834Q) (Homo sapiens, UniProt P36888, R834Q).
T1 sequence (P36888 27-993 R834Q): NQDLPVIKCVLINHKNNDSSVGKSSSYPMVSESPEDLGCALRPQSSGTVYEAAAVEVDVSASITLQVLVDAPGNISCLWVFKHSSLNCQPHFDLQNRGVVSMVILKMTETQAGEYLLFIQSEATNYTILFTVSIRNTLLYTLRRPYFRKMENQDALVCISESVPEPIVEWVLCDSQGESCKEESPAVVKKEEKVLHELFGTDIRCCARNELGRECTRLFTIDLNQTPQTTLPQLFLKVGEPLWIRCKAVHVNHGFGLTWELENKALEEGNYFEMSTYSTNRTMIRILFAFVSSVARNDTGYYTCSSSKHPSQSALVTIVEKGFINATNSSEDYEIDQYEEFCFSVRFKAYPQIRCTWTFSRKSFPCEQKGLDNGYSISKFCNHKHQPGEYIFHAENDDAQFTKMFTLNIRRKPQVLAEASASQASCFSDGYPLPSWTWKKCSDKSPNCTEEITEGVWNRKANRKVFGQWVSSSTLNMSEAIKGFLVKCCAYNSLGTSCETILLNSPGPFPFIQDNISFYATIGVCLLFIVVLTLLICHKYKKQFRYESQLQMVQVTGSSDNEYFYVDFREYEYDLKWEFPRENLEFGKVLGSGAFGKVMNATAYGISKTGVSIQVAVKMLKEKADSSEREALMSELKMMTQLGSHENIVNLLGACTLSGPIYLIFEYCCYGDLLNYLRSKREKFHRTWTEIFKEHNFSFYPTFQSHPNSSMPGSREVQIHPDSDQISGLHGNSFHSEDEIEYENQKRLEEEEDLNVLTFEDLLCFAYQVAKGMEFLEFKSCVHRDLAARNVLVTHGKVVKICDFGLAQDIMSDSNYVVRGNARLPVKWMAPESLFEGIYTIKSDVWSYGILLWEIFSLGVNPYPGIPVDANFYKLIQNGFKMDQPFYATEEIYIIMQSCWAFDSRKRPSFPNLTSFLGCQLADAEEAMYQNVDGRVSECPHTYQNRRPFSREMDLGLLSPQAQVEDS
Briefly: Kd determination. Format: binding.

Another data set addresses T2, FLT3 (D835Y) (Homo sapiens, UniProt P36888, D835Y).
T2 sequence (P36888 27-993 D835Y): T1 sequence (P36888 27-993 R834Q) with Q808R, D809Y
Briefly: Kd determination. In kind it is binding.

Another data set addresses T3, FLT3 (N841I) (Homo sapiens, UniProt P36888, N841I).
T3 sequence (P36888 27-993 N841I): T1 sequence (P36888 27-993 R834Q) with Q808R, N815I
Briefly: Kd determination. Format: binding.

Data set [1] can be described thus: Liver microsomal stability. Particulars: both, human, liver microsomes, pH 7.4.
Data set [2] can be described thus: Liver microsomal stability. Particulars: female, CD-1, mouse, liver microsomes, pH 7.4. In general terms: Liver microsomes are a subcellular fraction often used to study metabolism.

By Kd is commonly meant the constant that tells how readily two partners part at equilibrium. Read a high Kd as weaker binding. In the case of `CC(C)Nc1ccnc(Nc2ccccc2-c2ccccc2)n1` [Compound 6a, N^2-([1,1′-Biphenyl]-2-yl)-N^4-isopropylpyrimidine-2,4-diamine], the dissociation constant Kd at FLT3 (R834Q), at FLT3 (D835Y) and on FLT3 (N841I) was greater than 10000 nM each time.
As a reminder, the CLint scaled is the rate of metabolic loss divided by the concentration. Low values mean slow turnover, high ones rapid turnover. As usually defined, the half-life is how long it takes for the measured level to halve. A low value points to fast loss. With `c1cncc(-c2cccc(Nc3nccc(NC4CCCCC4)n3)c2)c1` [Compound 1, N^4-Cyclohexyl-N^2-(3-(pyridin-3-yl)phenyl)pyrimidine-2,4-diamine], the CLint scaled at 4 µM in data set [1] came out at 26.6 ± 2.2 mL/min/kg; in data set [2], 26.5 ± 1.6 mL/min/kg. Moreover, the half-life at 4 µM is 48 ± 6 min in data set [1] and 15.6 ± 1.8 min in data set [2]. For the same compound, the Kd amounted to 680 nM on FLT3 (R834Q), 13 nM at FLT3 (D835Y) and 48 nM on FLT3 (N841I).
As to `CC(C)Nc1ccnc(Nc2cccc(-c3cccnc3)c2)n1` [Compound 5e, N^4-Isopropyl-N^2-(3-(pyridin-3-yl)phenyl)pyrimidine-2,4-diamine], the results for the CLint scaled at 4 µM in data set [1] and in data set [2] were 10 ± 0.6 mL/min/kg and 180 ± 19.4 mL/min/kg, respectively. Besides, the results for the half-life at 4 µM in data set [1] and in data set [2] were 126 ± 6 min and 18 ± 1.8 min, respectively. The compound further registered a half-life in data set [2] of 12 to 60 min. Further, the dissociation constant (Kd) at FLT3 (R834Q) is 82 nM; at FLT3 (D835Y), 0.59 nM; at FLT3 (N841I), 11 nM.

The values are drawn from paper PMC5452050 (ACS Omega, 2017).
